These results are taken from US20010049450A1 (priority 2000, published 2001).

Counter-ions that a name gives are not always drawn.

Series [1] can be described thus: Crystal particle size distribution and average particle size (SHIMADZU SALD1100, medium diisopropyl ether). The series is classed as physicochemical. Particulars: for average particle size: average diameter upon conversion of particle volume into sphere; for average particle size / crystal particle size distribution: not less than 10 μm and less than 20 μm / crystal particle size distribution: not less than 20 μm and less than 40 μm / crystal particle size distribution: less than 5 μm / crystal particle size distribution: not less than 40 μm: hydrobromide; for crystal particle size distribution: not less than 10 μm and less than 20 μm: fraction of crystals with 10 μm ≦ D < 20 μm; for crystal particle size distribution: not less than 20 μm and less than 40 μm: fraction of crystals with 20 μm ≦ D < 40 μm; for crystal particle size distribution: less than 5 μm: fraction of crystals with D < 5 μm; for crystal particle size distribution: not less than 40 μm: fraction of crystals with D ≧ 40 μm. On the procedure:
The average particle size in the present invention is an average diameter upon conversion of the volume of the crystal particles into sphere. The powder X-ray crystal diffraction and average particle size were measured in the following Reference Example, Examples and Comparative Example, according to the following methods. Average particle size: SHIMADZU CORPORATION SALD1100 (medium:diisopropyl ether)

The nature of series [2]: Bulk density and tap density of crystals. In kind it is physicochemical.

As for `CN(C)CCCC1(c2ccc(F)cc2)OCc2cc(C#N)ccc21` (single isomer, unassigned) [Example 1, citalopram hydrobromide], in series [1], the average particle size amounted to 12.9 μm; the “crystal particle size distribution: not less than 10 μm and less than 20 μm” value is 29.1%; the “crystal particle size distribution: not less than 20 μm and less than 40 μm” value came out at 27.0%; the “crystal particle size distribution: less than 5 μm” value worked out at 17.1%. In series [1], the “crystal particle size distribution: not less than 40 μm” value worked out at 4.6%.
Taken in the same sequence, the figures for `CN(C)CCCC1(c2ccc(F)cc2)OCc2cc(C#N)ccc21` (single isomer, unassigned) [Example 4, citalopram hydrobromide] were 23.8 μm, 20.9%, 31.7%, 9.6% and 25.5%.
Regarding `CN(C)CCCC1(c2ccc(F)cc2)OCc2cc(C#N)ccc21` (single isomer, unassigned) [Example 6, citalopram hydrobromide], in series [1], the average particle size worked out at 14.6 μm; the “crystal particle size distribution: not less than 10 μm and less than 20 μm” value amounted to 35.5%; the “crystal particle size distribution: not less than 20 μm and less than 40 μm” value is 29.3%; the “crystal particle size distribution: less than 5 μm” value was determined as 12.6%. In addition, the “crystal particle size distribution: not less than 40 μm” value in series [1] is given as 2.4%. In series [2], this compound registered a bulk density of 0.2 g/mL and a tap density of 0.42 g/mL.
For the compound `CN(C)CCCC1(c2ccc(F)cc2)OCc2cc(C#N)ccc21` (centres unmarked) [Comparative Example 1, citalopram hydrobromide, reference compound], in series [1], the average particle size was determined as 6.3 μm; the “crystal particle size distribution: not less than 10 μm and less than 20 μm” value came to 23.9%; the “crystal particle size distribution: not less than 20 μm and less than 40 μm” value is 4.0%; the “crystal particle size distribution: less than 5 μm” value is given as 41.9%. The “crystal particle size distribution: not less than 40 μm” value in series [1] is recorded as 0%.
Regarding `CN(C)CCCC1(c2ccc(F)cc2)OCc2cc(C#N)ccc21` (centres unmarked) [Example 2, citalopram hydrobromide], in series [1], the average particle size is listed as 7.8 μm; the “crystal particle size distribution: not less than 10 μm and less than 20 μm” value is listed as 25.7%; the “crystal particle size distribution: not less than 20 μm and less than 40 μm” value is 12.2%; the “crystal particle size distribution: less than 5 μm” value is given as “D < 5 μm 31.4%”. In series [1], the “crystal particle size distribution: not less than 40 μm” value is reported as “D ≧ 40 μm 0.3%”.
In the case of `CN(C)CCCC1(c2ccc(F)cc2)OCc2cc(C#N)ccc21` (centres unmarked) [Example 3, citalopram hydrobromide], in series [1], the average particle size is reported as 11.0 μm; the “crystal particle size distribution: not less than 10 μm and less than 20 μm” value is 31.0%; the “crystal particle size distribution: not less than 20 μm and less than 40 μm” value is 21.6%; the “crystal particle size distribution: less than 5 μm” value is “D < 5 μm 19.6%”. Besides, in series [1], the “crystal particle size distribution: not less than 40 μm” value is listed as “D ≧ 40 μm 1.6%”.
Taken in the same sequence, the figures for `CN(C)CCCC1(c2ccc(F)cc2)OCc2cc(C#N)ccc21` (centres unmarked) [Example 5, citalopram hydrobromide] were 15.1 μm, 10 μm ≦ D < 20 μm 26.9%, 20 μm ≦ D < 40 μm 31.0%, “D < 5 μm 15.6%” and “D ≧ 40 μm 7.2% (shown”.
As for `CN(C)CCCC1(c2ccc(F)cc2)OCc2cc(C#N)ccc21` (centres unmarked) [citalopram hydrobromide, reference compound], the “fine crystals having a particle size of less than 5 μm (of the total amount)” value in series [1] (crystallized according to the method of U.S. Pat. No. 4,650,884) is given as 41.9%.
